Source: PMC8854621, “Functionally selective signaling and broad metabolic benefits by novel insulin receptor partial agonists” (Nature Communications, 2022)
Like-named read-outs stand apart in the source and are kept apart here.

Columns and labels:
[1] = test system: SAOS2/B10 cells; assay: Cellular proliferation, EdU incorporation (Click-it EdU); type: cell-based
Source text: 3. […]
Ethynyl-2′-deoxyuridine; ThermoFisher Scientific) assay. […]

[2] = test system: diabetic Yucatan minipigs; assay: Glucose lowering after s.c. bolus in type 1 diabetic Yucatan minipigs (PD); type: in vivo, minipig; details: individual animal
Procedure: Data is presented as mean ± SEM, n = 6 animals per dose group. […] Source data are provided as a Source Data file.
IRPAs were characterized in a Type 1 diabetic Yucatan minipig model. Briefly, male Yucatan minipigs, from Sinclair, were rendered Type 1 diabetic by Alloxan injections following a proprietary protocol developed by Sinclair Research Center (Auxvasse, MO). […] Minipigs used in these studies ranged from 10 months to 3 years old, had plasma glucose levels of approximately 300–400 mg/dL and were instrumented with two Jugular vein vascular access ports (VAP).
IRPAs were administered to diabetic minipigs by subcutaneous injection. […] After dosing, sampling continued for 18 h.

IGF-1: insulin-like growth factor 1
EC50 ([1]; geometric mean of all independent titrations, EdU incorporation, four-parameter fit, read-out: Cell Proliferation Assay Total Ave EC50): 0.149 nM
EC50 ([1]; titration 2, read-out: Cell Proliferation Assay EC50-2): 0.397 nM
EC50 ([1]; titration 3, read-out: Cell Proliferation Assay EC50-3): 0.154 nM
EC50 ([1]; titration 4, read-out: Cell Proliferation Assay EC50-4): 0.0819 nM
EC50 ([1]; titration 5, read-out: Cell Proliferation Assay EC50-5): 0.103 nM
EC50 ([1]; titration 6, read-out: Cell Proliferation Assay EC50-6): 0.0688 nM
EC50 ([1]; titration 7, read-out: Cell Proliferation Assay EC50-7): 0.0568 nM
EC50 ([1]; titration 8, read-out: Cell Proliferation Assay EC50-8): 0.842 nM
EC50 ([1]; titration 9, read-out: Cell Proliferation Assay EC50-9): 0.438 nM
EC50 ([1]; titration 10, read-out: Cell Proliferation Assay EC50-10): 0.153 nM

Tresiba: insulin Degludec from Novo Nordisk, a lipidated insulin
ΔGlucose ([2]; 2 h post s.c. dose, replicate 1): -38 mg/dL
ΔGlucose ([2]; 2 h post s.c. dose, replicate 2): -21 mg/dL
ΔGlucose ([2]; 2 h post s.c. dose, replicate 3): 5 mg/dL
ΔGlucose ([2]; 2 h post s.c. dose, replicate 4): 79 mg/dL
ΔGlucose ([2]; 2 h post s.c. dose, replicate 5): 69 mg/dL
ΔGlucose ([2]; 2 h post s.c. dose, replicate 6): -28 mg/dL
ΔGlucose ([2]; 2 h post s.c. dose, replicate 7): 35 mg/dL
ΔGlucose ([2]; 2 h post s.c. dose, replicate 8): -20 mg/dL
ΔGlucose ([2]; 2 h post s.c. dose, replicate 9): 40 mg/dL
ΔGlucose ([2]; 2 h post s.c. dose, replicate 10): 8 mg/dL
ΔGlucose ([2]; 2 h post s.c. dose, replicate 11): -118 mg/dL
ΔGlucose ([2]; 2 h post s.c. dose, replicate 12): 93 mg/dL
ΔGlucose ([2]; 2 h post s.c. dose, replicate 13): -13 mg/dL
ΔGlucose ([2]; 2 h post s.c. dose, replicate 14): 18 mg/dL
ΔGlucose ([2]; 2 h post s.c. dose, replicate 15): -36 mg/dL
ΔGlucose ([2]; 2 h post s.c. dose, replicate 16): 58 mg/dL
ΔGlucose ([2]; 2 h post s.c. dose, replicate 17): -126 mg/dL
ΔGlucose ([2]; 2 h post s.c. dose, replicate 18): -12 mg/dL
ΔGlucose ([2]; 2 h post s.c. dose, replicate 19): -60 mg/dL
ΔGlucose ([2]; 3 h post s.c. dose, replicate 1): -67 mg/dL
ΔGlucose ([2]; 3 h post s.c. dose, replicate 2): -79 mg/dL
ΔGlucose ([2]; 3 h post s.c. dose, replicate 3): -1 mg/dL
ΔGlucose ([2]; 3 h post s.c. dose, replicate 4): 32 mg/dL
ΔGlucose ([2]; 3 h post s.c. dose, replicate 5): 97 mg/dL
ΔGlucose ([2]; 3 h post s.c. dose, replicate 6): -58 mg/dL
ΔGlucose ([2]; 3 h post s.c. dose, replicate 7): 20 mg/dL
ΔGlucose ([2]; 3 h post s.c. dose, replicate 8): -73 mg/dL
ΔGlucose ([2]; 3 h post s.c. dose, replicate 9): 97 mg/dL
ΔGlucose ([2]; 3 h post s.c. dose, replicate 10): -61 mg/dL
ΔGlucose ([2]; 3 h post s.c. dose, replicate 11): -233 mg/dL
ΔGlucose ([2]; 3 h post s.c. dose, replicate 12): -9 mg/dL
ΔGlucose ([2]; 3 h post s.c. dose, replicate 13): -76 mg/dL
ΔGlucose ([2]; 3 h post s.c. dose, replicate 14): -2 mg/dL
ΔGlucose ([2]; 3 h post s.c. dose, replicate 15): -89 mg/dL
ΔGlucose ([2]; 3 h post s.c. dose, replicate 16): 57 mg/dL
ΔGlucose ([2]; 3 h post s.c. dose, replicate 17): -188 mg/dL
ΔGlucose ([2]; 3 h post s.c. dose, replicate 18): -49 mg/dL
ΔGlucose ([2]; 3 h post s.c. dose, replicate 19): -86 mg/dL
ΔGlucose ([2]; 4 h post s.c. dose, replicate 1): -114 mg/dL
ΔGlucose ([2]; 4 h post s.c. dose, replicate 2): -145 mg/dL
ΔGlucose ([2]; 4 h post s.c. dose, replicate 3): -76 mg/dL
ΔGlucose ([2]; 4 h post s.c. dose, replicate 4): 21 mg/dL
ΔGlucose ([2]; 4 h post s.c. dose, replicate 5): 89 mg/dL
ΔGlucose ([2]; 4 h post s.c. dose, replicate 6): -90 mg/dL
ΔGlucose ([2]; 4 h post s.c. dose, replicate 7): -30 mg/dL
ΔGlucose ([2]; 4 h post s.c. dose, replicate 8): -110 mg/dL
ΔGlucose ([2]; 4 h post s.c. dose, replicate 9): 88 mg/dL
ΔGlucose ([2]; 4 h post s.c. dose, replicate 10): -83 mg/dL
ΔGlucose ([2]; 4 h post s.c. dose, replicate 11): -283 mg/dL
ΔGlucose ([2]; 4 h post s.c. dose, replicate 12): -105 mg/dL
ΔGlucose ([2]; 4 h post s.c. dose, replicate 13): -142 mg/dL
ΔGlucose ([2]; 4 h post s.c. dose, replicate 14): -49 mg/dL
ΔGlucose ([2]; 4 h post s.c. dose, replicate 15): -147 mg/dL
ΔGlucose ([2]; 4 h post s.c. dose, replicate 16): 24 mg/dL
ΔGlucose ([2]; 4 h post s.c. dose, replicate 17): -217 mg/dL
ΔGlucose ([2]; 4 h post s.c. dose, replicate 19): -118 mg/dL
ΔGlucose ([2]; 5 h post s.c. dose, replicate 1): -180 mg/dL
ΔGlucose ([2]; 5 h post s.c. dose, replicate 2): -224 mg/dL
ΔGlucose ([2]; 5 h post s.c. dose, replicate 3): -181 mg/dL
ΔGlucose ([2]; 5 h post s.c. dose, replicate 4): 9 mg/dL
ΔGlucose ([2]; 5 h post s.c. dose, replicate 5): 29 mg/dL
ΔGlucose ([2]; 5 h post s.c. dose, replicate 6): -129 mg/dL
ΔGlucose ([2]; 5 h post s.c. dose, replicate 7): -47 mg/dL
ΔGlucose ([2]; 5 h post s.c. dose, replicate 8): -151 mg/dL
ΔGlucose ([2]; […] post s.c. dose, replicate 4): 27 mg/dL
ΔGlucose ([2]; […] post s.c. dose, replicate 12): -48 mg/dL
